Read-outs that look alike come from different tables or passages of the source.
Test system: respiratory epithelial cells
[1] = HG-U95E, lot 1, Day 3, AI (head as in Table 18)
[2] = HG-U95E, lot 1, Day 7, AI (no head printed, inferred)
[3] = HG-U95E, lot 2, Day 3, AI (no head printed, inferred)

## IL-13: human IL-13 (Peprotech, Inc.) added to the medium at 50 ng/mL to stimulate respiratory epithelial cells
HG-U95A, lot 2, Day 7, AI
  CRYM (38285_at) expression change upon IL-13 stimulation: −3.5
  CSPG2 (38112_g_at) expression change upon IL-13 stimulation: −2.5
  DHCR24 (36658_at) expression change upon IL-13 stimulation: −4.3
  DSG3 (33693_at) expression change upon IL-13 stimulation: −2.2
  E48 (36284_at) expression change upon IL-13 stimulation: −5.6
  EPHX1 (38790_at) expression change upon IL-13 stimulation: −5.1
  FACL2 (40082_at) expression change upon IL-13 stimulation: −2
  FMO3 (40665_at) expression change upon IL-13 stimulation: −4.3
  GLUL (40522_at) expression change upon IL-13 stimulation: −4.4
  GPX3 (770_at) expression change upon IL-13 stimulation: −2.8
  GSTA4 (40508_at) expression change upon IL-13 stimulation: −5.4
  HGNC, keratinocyte transglutaminase gene (35947_at) expression change upon IL-13 stimulation: −3.2
  KIAA0878 (32215_1_at) expression change upon IL-13 stimulation: −2.7
  KIAA1055 (39400_at) expression change upon IL-13 stimulation: −3
  LCE (40943_at) expression change upon IL-13 stimulation: −3.7
  LGALS1 (33412_at) expression change upon IL-13 stimulation: −6.2
  SCYD1 (823_at) expression change upon IL-13 stimulation: −24.6
  SDC1 (38127_at) expression change upon IL-13 stimulation: −2.9
  TGFBI (1385_at) expression change upon IL-13 stimulation: −4.9
  TNFAIP2 (38631_at) expression change upon IL-13 stimulation: −3.7
HG-U95E, lot 1, Day 3, AI
  AA199856 (72960_s_at) expression change upon IL-13 stimulation: 4.3
  AI859144, KIAA1127 (77546_at) expression change upon IL-13 stimulation: 4.2
  BAL (69619_at) expression change upon IL-13 stimulation: 3.5
  EHF (8S090_at) expression change upon IL-13 stimulation: 2.3
  EPSTI1 (90421_at) expression change upon IL-13 stimulation: 7.2
  FLJ20989 (91420_at) expression change upon IL-13 stimulation: 14.8
  FLJ22833 (67329_at) expression change upon IL-13 stimulation: 3.1
  GCNT3 (77751_at) expression change upon IL-13 stimulation: 4.9
  MFHAS1 (87816_g_at) expression change upon IL-13 stimulation: 3
  RPL4 (80675_at) expression change upon IL-13 stimulation: 2.2
  SCYA26 (90189_at) expression change upon IL-13 stimulation: 26.3
[1]
  H70665 (67357_at) expression change upon IL-13 stimulation: 2.6
  SLC21A12 (87860_s_at) expression change upon IL-13 stimulation: 2.7
  TBLR1 (87125_at) expression change upon IL-13 stimulation: 2.8
HG-U95E, lot 1, Day 3, IMM
  AA199856 (72960_s_at) expression change upon IL-13 stimulation: 5.8
  AI859144, KIAA1127 (77546_at) expression change upon IL-13 stimulation: 6.1
  AW024819 (72867_at) expression change upon IL-13 stimulation: 4.2
  BAL (69619_at) expression change upon IL-13 stimulation: 3.1
  EPSTI1 (90421_at) expression change upon IL-13 stimulation: 9.9
  FLJ20989 (91420_at) expression change upon IL-13 stimulation: 13.5
  GCNT3 (77751_at) expression change upon IL-13 stimulation: 10.2
  RIG-1 (77749_at) expression change upon IL-13 stimulation: 3.9
  SCYA26 (90189_at) expression change upon IL-13 stimulation: 18.1
HG-U95E, lot 1, Day 3, IMM (head as in Table 18)
  EHF (85092_g_at) expression change upon IL-13 stimulation: 2.3
HG-U95E, lot 1, Day 7, AI
  AA199856 (72960_s_at) expression change upon IL-13 stimulation: 3.9
  AA806114 (80826_at) expression change upon IL-13 stimulation: 5.3
  AI803648 (89255_at) expression change upon IL-13 stimulation: 3.5
  AI859144, KIAA1127 (77546_at) expression change upon IL-13 stimulation: 2.6
  AI984061 (89834_at) expression change upon IL-13 stimulation: 2.7
  AW024819 (72867_at) expression change upon IL-13 stimulation: 2.6
  BCAT1 (72962_at) expression change upon IL-13 stimulation: 2.7
  CLDN1 (77660_at) expression change upon IL-13 stimulation: 2.6
  EHF (85092_g_at) expression change upon IL-13 stimulation: 2.1
  EPPK1 (86507_at) expression change upon IL-13 stimulation: 2.6
  FLJ20281 (83376_at) expression change upon IL-13 stimulation: 2.1
  FLJ20989 (91420_at) expression change upon IL-13 stimulation: 3.4
  FLJ21415 (89902_at) expression change upon IL-13 stimulation: 3.4
  FLJ22833 (67329_at) expression change upon IL-13 stimulation: 3.6
  GCNT3 (77751_at) expression change upon IL-13 stimulation: 2.5
  KIAA1685 (83541_at) expression change upon IL-13 stimulation: 2.6
  MASL1 (89651_at) expression change upon IL-13 stimulation: 4.3
  MFHAS1 (87816_g_at) expression change upon IL-13 stimulation: 3.4
  RIG-1 (77749_at) expression change upon IL-13 stimulation: 3.4
  SCYA26 (90189_at) expression change upon IL-13 stimulation: 30.4
  vipirin (84893_at) expression change upon IL-13 stimulation: 2.7
[2]
  NIFK (89320_at) expression change upon IL-13 stimulation: 2.9
  SLC1A5 (34759_at) expression change upon IL-13 stimulation: 2.5
  SLC17A5 (88617_at) expression change upon IL-13 stimulation: 2.7
  SLC21A12 (87860_s_at) expression change upon IL-13 stimulation: 2.7
  rab11-FIP1 (89338_at) expression change upon IL-13 stimulation: 4.4
HG-U95E, lot 1, Day 7, IMM
  AA199856 (72960_s_at) expression change upon IL-13 stimulation: 3.8
  AA806114 (80826_at) expression change upon IL-13 stimulation: 5.3
  AI803648 (89255_at) expression change upon IL-13 stimulation: 7
  BAL (69619_at) expression change upon IL-13 stimulation: 2.2
  BCAT1 (72962_at) expression change upon IL-13 stimulation: 3.4
  EPPK1 (86507_at) expression change upon IL-13 stimulation: 3.6
  EPSTI1 (90421_at) expression change upon IL-13 stimulation: 3.4
  FLJ22833 (67329_at) expression change upon IL-13 stimulation: 3.7
  GCNT3 (77751_at) expression change upon IL-13 stimulation: 3.5
  MFHAS1 (87816_g_at) expression change upon IL-13 stimulation: 3.1
  RIG-1 (77749_at) expression change upon IL-13 stimulation: 5.1
  SCYA26 (90189_at) expression change upon IL-13 stimulation: 35.1
  vipirin (84893_at) expression change upon IL-13 stimulation: 6.6
HG-U95E, lot 2, Day 3, AI
  AA199856 (72960_s_at) expression change upon IL-13 stimulation: 18.8
  AA779704 (68562_at) expression change upon IL-13 stimulation: 2.8
  AA806114 (80826_at) expression change upon IL-13 stimulation: 7.2
  AI859144, KIAA1127 (77546_at) expression change upon IL-13 stimulation: 5.5
  BAL (69619_at) expression change upon IL-13 stimulation: 3.1
  BCAT1 (72962_at) expression change upon IL-13 stimulation: 10.5
  EHF (8S090_at) expression change upon IL-13 stimulation: 3.3
  EHF (85092_g_at) expression change upon IL-13 stimulation: 3.3
  EPSTI1 (90421_at) expression change upon IL-13 stimulation: 9.4
  FLJ22833 (67329_at) expression change upon IL-13 stimulation: 6.1
  MASL1 (89651_at) expression change upon IL-13 stimulation: 3.2
  MFHAS1 (87816_g_at) expression change upon IL-13 stimulation: 3.5
  OAS2 (90662_at) expression change upon IL-13 stimulation: 4.1
  RIG-1 (77749_at) expression change upon IL-13 stimulation: 6.4
  RPL4 (80675_at) expression change upon IL-13 stimulation: 2.3
  SCYA26 (90189_at) expression change upon IL-13 stimulation: 16.7
  vipirin (84893_at) expression change upon IL-13 stimulation: 15.4
[3]
  H70665 (67357_at) expression change upon IL-13 stimulation: 2.1
  NIFK (89320_at) expression change upon IL-13 stimulation: 2.1
  TBLR1 (87125_at) expression change upon IL-13 stimulation: 4.4
HG-U95E, lot 2, Day 7
  NIFK (89320_at) expression change upon IL-13 stimulation: 3.4
  SLC1A5 (34759_at) expression change upon IL-13 stimulation: 2.9
  SLC17A5 (88617_at) expression change upon IL-13 stimulation: 2.3

Reference: patent US20050208496A1, “Methods of testing for bronchial asthma or chronic obstructive pulmonary disease” (Genox Research, Inc., priority 2002, published 2005)
